Reference: US8163724B2, “Glucocorticosteroids, processes for their preparation, pharmaceutical compositions containing them and their use in therapy” (AstraZeneca AB, priority 2007, dated 2012)
Read-outs that look alike come from different tables or passages of the source.

Biological target: T1, recombinant human GR (Homo sapiens, UniProt P04150)
T1 construct: purchased Panvera/Invitrogen P2812 (kit P2893)
T1 sequence (P04150 1-777): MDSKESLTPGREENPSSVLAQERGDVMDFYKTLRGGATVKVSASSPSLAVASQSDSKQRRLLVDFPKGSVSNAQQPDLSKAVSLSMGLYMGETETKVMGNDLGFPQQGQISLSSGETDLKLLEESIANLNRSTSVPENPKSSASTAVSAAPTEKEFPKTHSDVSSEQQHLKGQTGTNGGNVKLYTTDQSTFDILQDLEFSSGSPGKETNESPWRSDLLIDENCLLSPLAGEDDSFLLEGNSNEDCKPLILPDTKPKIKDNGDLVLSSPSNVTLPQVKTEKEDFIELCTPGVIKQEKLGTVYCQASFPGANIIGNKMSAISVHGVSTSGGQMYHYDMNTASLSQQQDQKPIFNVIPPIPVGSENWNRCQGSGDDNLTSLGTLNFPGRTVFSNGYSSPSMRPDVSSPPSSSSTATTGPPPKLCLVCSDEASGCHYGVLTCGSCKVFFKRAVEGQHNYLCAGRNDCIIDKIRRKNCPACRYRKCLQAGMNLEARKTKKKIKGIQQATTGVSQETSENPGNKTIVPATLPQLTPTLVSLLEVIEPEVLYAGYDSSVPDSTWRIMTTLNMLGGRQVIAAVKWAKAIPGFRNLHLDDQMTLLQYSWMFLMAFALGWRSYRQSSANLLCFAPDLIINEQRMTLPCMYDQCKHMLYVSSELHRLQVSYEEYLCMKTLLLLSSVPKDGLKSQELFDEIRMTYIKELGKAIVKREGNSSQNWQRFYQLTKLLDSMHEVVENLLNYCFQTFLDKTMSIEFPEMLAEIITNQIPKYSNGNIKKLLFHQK
Assay: Human Glucocorticoid Receptor (GR) Assay (fluorescence polarization, Panvera/Invitrogen kit)
Assay type: binding
How it was run: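 Fluorescence polarization competition with recombinant GR and GS Red fluorescent ligand plus stabilizing peptide and DTT in potassium phosphate/sodium molybdate/EDTA buffer with DMSO. Incubated 2 hours at room temperature in the dark; 0% control DMSO, 100% control 10 μM dexamethasone.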

[1] = fluorescence polarization, GS Red tracer, 2 hours at room temperature, 100% control 10 μM Dexamethasone, read-out: Inhibition of GR binding, IC50

## CC(=O)O[C@]1(C(=O)SCF)CC[C@H]2[C@@H]3CCC4=Cc5c(cnn5-c5ccc(F)cc5)C[C@]4(C)[C@H]3[C@@H](O)C[C@@]21C [Example 110, (1R,3aS,3bS,10aR,10bS,11S,12aS)-1-{[(Fluoromethyl)sulfanyl]carbonyl}-7-(4-fluorophenyl)-11-hydroxy-10a,12a-dimethyl-1,2,3,3a,3b,4,5,7,10,10a,10b,11,12,12a-tetradecahydrocyclopenta[5,6]naphtho[1,2-f]indazol-1-yl acetate]
[1]
  IC50: 6.7 nM

## C[C@]12Cc3cnn(-c4ccc(F)cc4)c3C=C1CC[C@H]1[C@@H]3CC[C@](OC(=O)c4ccco4)(C(=O)SCF)[C@@]3(C)C[C@H](O)[C@@]12F [Example 194, (1R,3aS,3bS,10aS,10bR,11S,12aS)-1-{[(Fluoromethyl)sulfanyl]carbonyl}-10b-fluoro-7-(4-fluorophenyl)-11-hydroxy-10a,12a-dimethyl-1,2,3,3a,3b,4,5,7,10,10a,10b,11,12,12a-tetradecahydrocyclopenta[5,6]naphtho[1,2-f]indazol-1-yl furan-2-carboxylate]
[1]
  IC50: 2.3 nM

## C[C@]12Cc3cnn(-c4ccc(F)cc4)c3C=C1CC[C@@H]1[C@@H]2[C@@H](O)C[C@@]2(C)[C@H]1CC[C@]2(OC(=O)c1ccco1)C(=O)SCF [Example 8, (1R,3aS,3bS,10aR,10bS,11S,12aS)-1-{[(Fluoromethyl)thio]carbonyl}-7-(4-fluorophenyl)-11-hydroxy-10a,12a-dimethyl-1,2,3,3a,3b,4,5,7,10,10a,10b,11,12,12a-tetradecahydrocyclopenta[5,6]naphtho[1,2-f]indazol-1-yl 2-furoate]
[1]
  IC50: 4.7 nM

## C[C@]12Cc3cnn(-c4ccc(F)nc4)c3C=C1CC[C@H]1[C@@H]3CC[C@](OC(=O)c4ccco4)(C(=O)SCF)[C@@]3(C)C[C@H](O)[C@@]12F [Example 212, (1R,3aS,3bS,10aS,10bR,11S,12aS)-1-{[(Fluoromethyl)sulfanyl]carbonyl}-10b-fluoro-7-(6-fluoropyridin-3-yl)-11-hydroxy-10a,12a-dimethyl-1,2,3,3a,3b,4,5,7,10a,10b,11,12,12a-tetradecahydrocyclopenta[5,6]naphtho[1,2-f]indazol-1-yl furan-2-carboxylate]
[1]
  IC50: 2.1 nM

## C[C@]12Cc3cnn(-c4ccc(F)c(CO)c4)c3C=C1CC[C@@H]1[C@@H]2[C@@H](O)C[C@@]2(C)[C@H]1CC[C@]2(OC(=O)C1CC1)C(=O)OCC#N [Example 145, Cyanomethyl(1R,3aS,3bS,10aR,10bS,11S,12aS)-1-[(cyclopropylcarbonyl)oxy]-7-[4-fluoro-3-(hydroxymethyl)phenyl]-11-hydroxy-10a,12a-dimethyl-1,2,3,3a,3b,4,5,7,10,10a,10b,11,12,12a-tetradecahydrocyclopenta[5,6]naphtho[1,2-f]indazole-1-carboxylate]
[1]
  IC50: 3.2 nM

## COC(=O)c1cccc(-n2ncc3c2C=C2CC[C@@H]4[C@H]([C@@H](O)C[C@@]5(C)[C@H]4CC[C@]5(OC(=O)c4ccco4)C(=O)SCF)[C@@]2(C)C3)c1 [Example 108, (1R,3aS,3bS,10aR,10bS,11S,12aS)-1-{[(Fluoromethyl)sulfanyl]carbonyl}-11-hydroxy-7-[3-(methoxycarbonyl)phenyl]-10a,12a-dimethyl-1,2,3,3a,3b,4,5,7,10,10a,10b,11,12,12a-tetradecahydrocyclopenta[5,6]naphtho[1,2-f]indazol-1-yl furan-2-carboxylate]
[1]
  IC50: 6.6 nM

## CCC(=O)O[C@]1(C(=O)SCC#N)CC[C@H]2[C@@H]3CCC4=Cc5c(cnn5-c5ccc(F)nc5)C[C@]4(C)[C@@]3(F)[C@@H](O)C[C@@]21C [Example 203, (1R,3aS,3bS,10aS,10bR,11S,12aS)-1-{[(Cyanomethyl)sulfanyl]carbonyl}-10b-fluoro-7-(6-fluoropyridin-3-yl)-11-hydroxy-10a,12a-dimethyl-1,2,3,3a,3b,4,5,7,10,10a,10b,11,12,12a-tetradecahydrocyclopenta[5,6]naphtho[1,2-f]indazol-1-yl propanoate]
[1]
  IC50: 2.3 nM

## CCC(=O)O[C@]1(C(=O)SCF)CC[C@H]2[C@@H]3CCC4=Cc5c(cnn5-c5ccc(F)nc5)C[C@]4(C)[C@H]3[C@@H](O)C[C@@]21C [Example 99, (1R,3aS,3bS,10aR,10bS,11S,12aS)-1-{[(Fluoromethyl)sulfanyl]carbonyl}-7-(6-fluoropyridin-3-yl)-11-hydroxy-10a,12a-dimethyl-1,2,3,3a,3b,4,5,7,10,10a,10b,11,12,12a-tetradecahydrocyclopenta[5,6]naphtho[1,2-f]indazol-1-yl propanoate]
[1]
  IC50: 2.1 nM

## C[C@]12Cc3cnn(-c4ccc(F)cc4)c3C=C1CC[C@@H]1[C@@H]2[C@@H](O)C[C@@]2(C)[C@H]1CC[C@]2(OC(=O)c1cocn1)C(=O)SCC#N [Example 43, (1R,3aS,3bS,10aR,10bS,11S,12aS)-1-{[(Cyanomethyl)thio]carbonyl}-7-(4-fluoro-phenyl)-11-hydroxy-10a,12a-dimethyl-1,2,3,3a,3b,4,5,7,10,10a,10b,11,12,12a-tetradecahydrocyclopenta[5,6]naphtho[1,2-f]indazol-1-yl 1,3-oxazole-4-carboxylate]
[1]
  IC50: 2.7 nM

## C[C@]12Cc3cnn(-c4ccc(F)cc4)c3C=C1CC[C@@H]1[C@@H]2[C@@H](O)C[C@@]2(C)[C@H]1CC[C@]2(OC(=O)CF)C(=O)SCF [Example 28, (1R,3aS,3bS,10aR,10bS,11S,12aS)-1-{[(Fluoromethyl)thio]carbonyl}-7-(4-fluoro-phenyl)-11-hydroxy-10a,12a-dimethyl-1,2,3,3a,3b,4,5,7,10,10a,10b,11,12,12a-tetradecahydrocyclopenta[5,6]naphtho[1,2-f]indazol-1-yl fluoroacetate]
  IC50: 4.2 nM

## C[C@]12Cc3cnn(-c4ccc(F)cc4)c3C=C1CC[C@@H]1[C@@H]2[C@@H](O)C[C@@]2(C)[C@H]1CC[C@]2(OC(=O)C1CCCOC1)C(=O)SCC#N (single isomer, unassigned) [Example 138]
[1]
  IC50: 3.8 nM

## COCC(=O)O[C@]1(C(=O)SCC#N)CC[C@H]2[C@@H]3CCC4=Cc5c(cnn5-c5ccc(F)nc5)C[C@]4(C)[C@H]3[C@@H](O)C[C@@]21C [Example 156, (1R,3aS,3bS,10aR,10bS,11S,12aS)-1-{[(Cyanomethyl)sulfanyl]carbonyl}-7-(6-fluoropyridin-3-yl)-11-hydroxy-10a,12a-dimethyl-1,2,3,3a,3b,4,5,7,10,10a,10b,11,12,12a-tetradecahydrocyclopenta[5,6]naphtho[1,2-f]indazol-1-yl methoxyacetate]
[1]
  IC50: 1.3 nM

## C[C@]12Cc3cnn(-c4ccc(S(C)(=O)=O)cc4)c3C=C1CC[C@@H]1[C@@H]2[C@@H](O)C[C@@]2(C)[C@H]1CC[C@]2(OC(=O)c1ccco1)C(=O)SCC#N [Example 106, (1R,3aS,3bS,10aR,10bS,11S,12aS)-1-{[(Cyanomethyl)sulfanyl]carbonyl}-11-hydroxy-10a,12a-dimethyl-7-[4-(methylsulfonyl)phenyl]-1,2,3,3a,3b,4,5,7,10,10a,10b,11,12,12a-tetradecahydrocyclopenta[5,6]naphtho[1,2-f]indazol-1-yl furan-2-carboxylate]
[1]
  IC50: 160 nM

## CSCC(=O)[C@@]1(OC(C)=O)CC[C@H]2[C@@H]3CCC4=Cc5c(cnn5-c5ccc(F)cc5)C[C@]4(C)[C@H]3[C@@H](O)C[C@@]21C [Example 124, (1R,3aS,3bS,10aR,10bS,11S,12aS)-7-(4-Fluorophenyl)-11-hydroxy-10a,12a-dimethyl-1-[(methylsulfanyl)acetyl]-1,2,3,3a,3b,4,5,7,10,10a,10b,11,12,12a-tetradecahydrocyclopenta[5,6]naphtho[1,2-f]indazol-1-yl acetate]
[1]
  IC50: 2.4 nM

## C[C@]12Cc3cnn(-c4ccc(F)c(CF)c4)c3C=C1CC[C@@H]1[C@@H]2[C@@H](O)C[C@@]2(C)[C@H]1CC[C@]2(OC(=O)c1ccco1)C(=O)SCF [Example 76, (1R,3aS,3bS,10aR,10bS,11S,12aS)-7-[4-Fluoro-3-(fluoromethyl)phenyl]-1-{[(fluoromethyl)thio]carbonyl}-11-hydroxy-10a,12a-dimethyl-1,2,3,3a,3b,4,5,7,10,10a,10b,11,12,12a-tetradecahydrocyclopenta[5,6]naphtho[1,2]-indazol-1-yl furan-2-carboxylate]
[1]
  IC50: 35 nM

## COCC(=O)O[C@]1(C(=O)SC)CC[C@H]2[C@@H]3CCC4=Cc5c(cnn5-c5ccc(F)nc5)C[C@]4(C)[C@H]3[C@@H](O)C[C@@]21C [Example 157, (1R,3aS,3bS,10aR,10bS,11S,12aS)-7-(6-Fluoropyridin-3-yl)-11-hydroxy-10a,12a-dimethyl-1-[(methylsulfanyl)carbonyl]-1,2,3,3a,3b,4,5,7,10,10a,10b,11,12,12a-tetradecahydrocyclopenta[5,6]naphtho[1,2-f]indazol-1-yl Methoxyacetate]
[1]
  IC50: 1.1 nM
